According to ChEMBL document CHEMBL4808194, “Design, synthesis and biological evaluation of novel 2,4-disubstituted quinazoline derivatives targeting H1975 cells via EGFR-PI3K signaling pathway” (Bioorg Med Chem, 2021):
Activity calls are given as the source filed them. The calls are words filed in the database; no cut-off is given here.

Legend:
NCI-H1975 [1] = test: Cell cycle arrest in human NCI-H1975 cells assessed as accumulation at G2 phase at 4 uM incubated for 24 hrs by propidium iodide staining based flow cytometric analysis (reference value: 18.57 %); type: functional
NCI-H1975 [2] = test: Induction of apoptosis in human NCI-H1975 cells assessed as late apoptotic cells at 8 uM incubated for 48 hrs Annexin V-FITC/PI staining based flow cytometric analysis (reference value: 2.53%); type: functional
NCI-H1975 [3] = test: Induction of apoptosis in human NCI-H1975 cells assessed as viable cells at 8 uM incubated for 48 hrs Annexin V-FITC/PI staining based flow cytometric analysis (reference value: 90.9%); type: functional; settings: read-out: Activity
NCI-H1975 [4] = test: Cell cycle arrest in human NCI-H1975 cells assessed as accumulation at G2 phase at 8 uM incubated for 24 hrs by propidium iodide staining based flow cytometric analysis (reference value: 18.57 %); type: functional
NCI-H1975 [5] = test: Cell cycle arrest in human NCI-H1975 cells assessed as accumulation at G1 phase at 4 uM incubated for 24 hrs by propidium iodide staining based flow cytometric analysis (reference value: 50.56 %); type: functional
NCI-H1975 [6] = test: Induction of apoptosis in human NCI-H1975 cells assessed as increase in p53 level at 2 to 8 uM by western blot analysis; type: functional, cell-based; settings: dose 2-8 µM
NCI-H1975 [7] = test: Induction of apoptosis in human NCI-H1975 cells assessed as viable cells at 2 uM incubated for 48 hrs Annexin V-FITC/PI staining based flow cytometric analysis (reference value: 90.9%); type: functional; settings: read-out: Activity
NCI-H1975 [8] = test: Induction of apoptosis in human NCI-H1975 cells assessed as early apoptotic cells at 8 uM incubated for 48 hrs Annexin V-FITC/PI staining based flow cytometric analysis (reference value: 1%); type: functional
NCI-H1975 [9] = test: cells; type: functional, cell-based; settings: Homo sapiens, NCI-H1975, 72 h
Description: Antiproliferative activity against human NCI-H1975 cells assessed as inhibition of cell growth incubated for 72 hrs by MTT assay

NCI-H1975 [10] = test: Induction of ROS generation in human NCI-H1975 cells assessed increase in ROS level at 2 to 8 uM incubated for 48 hrs by DHE staining based fluorescence microscopy; type: functional, cell-based; settings: dose 2-8 µM
NCI-H1975 [11] = test: Induction of apoptosis in human NCI-H1975 cells assessed as necrotic cells at 8 uM incubated for 48 hrs Annexin V-FITC/PI staining based flow cytometric analysis (reference value: 4.74%); type: functional
[12] = target: Epidermal growth factor receptor (Homo sapiens) (UniProt P00533); test: Inhibition of EGFR in human NCI-H1975 cells assessed as reduction in EGFR phosphorylation level by Western blot analysis; type: cell-based; settings: dose 2-8 µM
MDA-MB-231 = test: cells; type: functional, cell-based; settings: Homo sapiens, MDA-MB-231, 72 h
NCI-H1975 [13] = test: Induction of apoptosis in human NCI-H1975 cells assessed as necrotic cells at 4 uM incubated for 48 hrs Annexin V-FITC/PI staining based flow cytometric analysis (reference value: 4.74%); type: functional
NCI-H1975 [14] = test: Cell cycle arrest in human NCI-H1975 cells assessed as accumulation at G2 phase at 2 uM incubated for 24 hrs by propidium iodide staining based flow cytometric analysis (reference value: 18.57 %); type: functional
NCI-H1975 [15] = test: Cell cycle arrest in human NCI-H1975 cells assessed as accumulation at S phase at 8 uM incubated for 24 hrs by propidium iodide staining based flow cytometric analysis (reference value: 30.87%); type: functional
NCI-H1975 [16] = test: Cell cycle arrest in human NCI-H1975 cells assessed as accumulation at G1 phase at 2 uM incubated for 24 hrs by propidium iodide staining based flow cytometric analysis (reference value: 50.56 %); type: functional
NCI-H1975 [17] = test: Induction of apoptosis in human NCI-H1975 cells assessed as shrunken and broken nuclear morphology at 2 to 8 uM incubated for 48 hrs by DAPI staining based fluorescence microscopic analysis; type: functional, cell-based; settings: dose 2-8 µM
PC-3 = test: cells; type: functional, cell-based; settings: Homo sapiens, PC-3, 72 h
Description: Antiproliferative activity against human PC-3 cells assessed as inhibition of cell growth incubated for 72 hrs by MTT assay

NCI-H1975 [18] = test: Cell cycle arrest in human NCI-H1975 cells assessed as accumulation at S phase at 4 uM incubated for 24 hrs by propidium iodide staining based flow cytometric analysis (reference value: 30.87%); type: functional
NCI-H1975 [19] = test: Inhibition of colony formation in human NCI-H1975 cells assessed as fewer and smaller cell colonies incubated for 7 days by crystal violet staining based microscopic analysis; type: functional; settings: dose 0.5-2 µM, time 7.0 day
NCI-H1975 [20] = test: Cell cycle arrest in human NCI-H1975 cells assessed as accumulation at G1 phase at 8 uM incubated for 24 hrs by propidium iodide staining based flow cytometric analysis (reference value: 50.56 %); type: functional
NCI-H1975 [21] = test: Cell cycle arrest in human NCI-H1975 cells assessed as accumulation at S phase at 2 uM incubated for 24 hrs by propidium iodide staining based flow cytometric analysis (reference value: 30.87%); type: functional
NCI-H1975 [22] = test: Induction of apoptosis in human NCI-H1975 cells assessed as necrotic cells at 2 uM incubated for 48 hrs Annexin V-FITC/PI staining based flow cytometric analysis (reference value: 4.74%); type: functional
[23] = target: Epidermal growth factor receptor (Homo sapiens) (UniProt P00533); test: Inhibition of EGFR in human NCI-H1975 cells assessed as reduction in PI3K phosphorylation level by Western blot analysis; type: cell-based; settings: dose 2-8 µM
NCI-H1975 [24] = test: Inhibition of cell migration in human NCI-H1975 cells incubated for 72 hrs by scratch wound healing assay; type: functional, cell-based; settings: dose 0.5-2 µM
NCI-H1975 [25] = test: Induction of apoptosis in human NCI-H1975 cells assessed as late apoptotic cells at 4 uM incubated for 48 hrs Annexin V-FITC/PI staining based flow cytometric analysis (reference value: 2.53%); type: functional
NCI-H1975 [26] = test: Induction of apoptosis in human NCI-H1975 cells assessed as early apoptotic cells at 4 uM incubated for 48 hrs Annexin V-FITC/PI staining based flow cytometric analysis (reference value: 1%); type: functional
NCI-H1975 [27] = test: Induction of apoptosis in human NCI-H1975 cells assessed as increase in Bax level at 2 to 8 uM by western blot analysis; type: functional, cell-based; settings: dose 2-8 µM
NCI-H1975 [28] = test: Induction of apoptosis in human NCI-H1975 cells assessed as late apoptotic cells at 2 uM incubated for 48 hrs Annexin V-FITC/PI staining based flow cytometric analysis (reference value: 2.53%); type: functional
NCI-H1975 [29] = test: Induction of apoptosis in human NCI-H1975 cells assessed as early apoptotic cells at 2 uM incubated for 48 hrs Annexin V-FITC/PI staining based flow cytometric analysis (reference value: 1%); type: functional
MGC-803 = test: cells; type: functional, cell-based; settings: Homo sapiens, MGC-803, 72 h
Description: Antiproliferative activity against human MGC-803 cells assessed as inhibition of cell growth incubated for 72 hrs by MTT assay

NCI-H1975 [30] = test: Induction of apoptosis in human NCI-H1975 cells assessed as viable cells at 4 uM incubated for 48 hrs Annexin V-FITC/PI staining based flow cytometric analysis (reference value: 90.9%); type: functional; settings: read-out: Activity
NCI-H1975 [31] = test: Induction of apoptosis in human NCI-H1975 cells assessed as decrease in Bcl2 level at 2 to 8 uM by western blot analysis; type: functional, cell-based; settings: dose 2-8 µM

Chain of Epidermal growth factor receptor (Homo sapiens) (P00533 whole entry): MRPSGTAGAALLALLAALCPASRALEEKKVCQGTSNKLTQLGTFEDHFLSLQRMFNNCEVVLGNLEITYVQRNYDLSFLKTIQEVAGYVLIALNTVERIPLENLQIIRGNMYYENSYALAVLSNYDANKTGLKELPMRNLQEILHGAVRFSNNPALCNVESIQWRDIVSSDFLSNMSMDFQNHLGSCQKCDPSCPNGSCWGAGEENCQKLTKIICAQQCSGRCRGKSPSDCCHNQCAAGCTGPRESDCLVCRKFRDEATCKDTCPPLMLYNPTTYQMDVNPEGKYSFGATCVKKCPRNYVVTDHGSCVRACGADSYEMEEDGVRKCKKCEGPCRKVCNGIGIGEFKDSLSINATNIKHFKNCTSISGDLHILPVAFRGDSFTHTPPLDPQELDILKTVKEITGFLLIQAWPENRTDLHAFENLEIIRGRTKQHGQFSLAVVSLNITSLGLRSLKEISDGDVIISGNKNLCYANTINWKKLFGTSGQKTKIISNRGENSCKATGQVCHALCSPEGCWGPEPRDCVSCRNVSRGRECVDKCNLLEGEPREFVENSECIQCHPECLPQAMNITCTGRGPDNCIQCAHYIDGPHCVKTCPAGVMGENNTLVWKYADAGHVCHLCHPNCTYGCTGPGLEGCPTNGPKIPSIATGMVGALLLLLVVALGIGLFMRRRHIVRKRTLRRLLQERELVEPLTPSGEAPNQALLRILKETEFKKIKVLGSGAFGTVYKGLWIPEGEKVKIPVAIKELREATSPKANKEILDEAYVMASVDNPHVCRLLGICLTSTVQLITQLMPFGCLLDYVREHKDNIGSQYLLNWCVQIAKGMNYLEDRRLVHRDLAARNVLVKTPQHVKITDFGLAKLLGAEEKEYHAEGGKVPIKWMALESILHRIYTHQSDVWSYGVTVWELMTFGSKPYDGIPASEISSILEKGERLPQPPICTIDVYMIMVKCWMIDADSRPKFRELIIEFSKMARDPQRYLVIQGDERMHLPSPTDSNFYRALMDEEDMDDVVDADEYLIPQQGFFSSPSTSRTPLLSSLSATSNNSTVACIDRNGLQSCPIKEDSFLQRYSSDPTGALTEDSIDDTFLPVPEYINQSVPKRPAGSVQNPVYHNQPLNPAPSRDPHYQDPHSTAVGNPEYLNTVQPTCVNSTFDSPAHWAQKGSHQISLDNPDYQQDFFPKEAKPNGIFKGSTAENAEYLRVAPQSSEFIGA

`C=CC(=O)Nc1cccc(NC(=O)CSc2nc(Nc3cccc(F)c3)c3ccccc3n2)c1` showed an Activity (NCI-H1975 [1]) of 5.32%, an Activity (NCI-H1975 [2]) of 32.3% and a viability at 8 µM (NCI-H1975 [3]) of 53.4%. For the same molecule, the Activity (NCI-H1975 [4]) was 3.4%, the Activity (NCI-H1975 [5]) was 62.46% and the Activity (NCI-H1975 [6]) was “Active”. It also gave a viability at 2 µM (NCI-H1975 [7]) of 78.5%, an Activity (NCI-H1975 [8]) of 18.2% and an IC50 (NCI-H1975 [9]) of 2.03 µM. The Activity (NCI-H1975 [10]) was “Active”, the Activity (NCI-H1975 [11]) was 14.3% and the inhibition [12] was “Dose-Dependent Effect”. For the same molecule, the IC50 (MDA-MB-231) was 8.16 µM, the Activity (NCI-H1975 [13]) was 12.4% and the Activity (NCI-H1975 [14]) was 16.09%. For the same molecule, the Activity (NCI-H1975 [15]) was 33.44%, the Activity (NCI-H1975 [16]) was 55.32% and the Activity (NCI-H1975 [17]) was “Active”. The IC50 (PC-3) was 5.37 µM, the Activity (NCI-H1975 [18]) was 32.22% and the inhibition (NCI-H1975 [19]) was “Dose-Dependent Effect”. It also gave an Activity (NCI-H1975 [20]) of 63.16%, an Activity (NCI-H1975 [21]) of 28.59% and an Activity (NCI-H1975 [22]) of 4.75%. The inhibition [23] was “Dose-Dependent Effect”, the inhibition (NCI-H1975 [24]) was “Dose-Dependent Effect” and the Activity (NCI-H1975 [25]) was 14.2%. The Activity (NCI-H1975 [26]) was 9.73%, the Activity (NCI-H1975 [27]) was “Active” and the Activity (NCI-H1975 [28]) was 8.83%. For the same molecule, the Activity (NCI-H1975 [29]) was 7.91%, the IC50 (MGC-803) was 6.25 µM and the viability at 4 µM (NCI-H1975 [30]) was 63.7%. For the same molecule, the Activity (NCI-H1975 [31]) was “Active”.
